The assay concerns the target T1, GlcAT-I (GST-GlcAT-I) (Homo sapiens, UniProt O94766).
T1 construct: gene B3GAT3; truncated GlcAT-I, GST fusion, E. coli, purified
T1 sequence (O94766 29-335 limits assumed): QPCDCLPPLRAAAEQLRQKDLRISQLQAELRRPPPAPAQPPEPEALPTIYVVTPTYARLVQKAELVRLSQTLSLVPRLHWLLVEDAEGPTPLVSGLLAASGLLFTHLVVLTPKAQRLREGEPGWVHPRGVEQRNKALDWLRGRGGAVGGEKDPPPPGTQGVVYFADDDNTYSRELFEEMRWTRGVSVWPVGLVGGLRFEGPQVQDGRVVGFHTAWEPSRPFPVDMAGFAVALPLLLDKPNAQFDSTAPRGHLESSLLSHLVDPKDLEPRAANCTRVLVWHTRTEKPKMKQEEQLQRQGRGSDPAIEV
As to the kind of experiment: UDP-Glo glycosyltransferase assay. It counts as biochemical. To be noted: acceptor; 5 mM UDP-GlcA, 100 mM sodium acetate pH 6.5, 10 mM MnCl2, 37 °C, 60 min.

One compound from PMC12406734, “B3GALT6 mutations lead to compromised connective tissue biomechanics in Ehlers-Danlos syndrome” (JCI Insight, 2025) can be followed below.

Consider `COc1ccc2ccc(O[C@@H]3OC[C@@H](O[C@@H]4O[C@H](CO)[C@H](O)[C@H](O[C@@H]5O[C@H](CO)[C@H](O)[C@H](O)[C@H]5O)[C@H]4O)[C@H](O)[C@H]3O)cc2c1` [Gal-Gal-Xyl-OMN], for which the UDP-Glo glycosyltransferase assay result is on record as “GlcAT-I was highly active towards the trisaccharide Gal-Gal-Xyl-OMN”.
